# Data reported in US9315443B2, “Liquid cation exchanger” (priority 2011, dated 2016).
# “Also recorded” adds a separate entry of the source.
# Assays:
# [1] = tested on: ALA and ALAME producing E. coli strain BL21 (DE3) T1r pBT10 pACYC:Duet[TAcv]; experiment: Oxygen transfer rate (OTR) during biotransformation with various ion exchangers (Example 4); type: cell-based; settings: 150 mL lauric acid methyl ester with ion exchanger (10% w/w) added to the fermentation broth
# Description: The biotransformation of lauric acid methyl ester to aminolauric acid methyl ester was tested in the 8-fold parallel fermentation system of DasGip with various ion exchangers.
# 1 L reactors were used for the fermentation. The pH probes were calibrated by means of a two-point calibration with standard solutions of pH 4.0 and pH 7.0. The reactors were filled with 300 mL water and were autoclaved for 20 min at 121° C., to ensure sterility. Then the pO2 probes were polarized overnight (for at least 6 h). On the next morning, the water was removed under the clean bench and was replaced with high-cell-density medium with 50 mg/L kanamycin and 34 mg/L chloramphenicol. Next the pO2 probes were calibrated with a single-point calibration (stirrer: 600 rpm/gassing: 10 sL/h air) and the feed, correcting-agent and induction-agent sections were cleaned by Clean-in-Place. For this, the hoses were rinsed with 70% ethanol, then with 1 M NaOH, then with sterile deionized water and finally were filled with the respective media.
# The ALA and ALAME producing E. coli strain BL21 (DE3) T1r pBT10 pACYC:Duet[TAcv] was first grown from cryoculture in LB medium (25 mL in a 100 mL baffle flask) with 50 mg/L kanamycin and 34 mg/L chloramphenicol overnight at 37° C. and 200 rpm for approx. 18 h.
# The 3 cultures were combined in a shaking flask and the optical density was determined as 7.2. For inoculating the reactors at an optical density of 0.1, in each case 4.2 mL was taken up in a 5 mL syringe and the reactors were inoculated by cannula through a septum.
# The experiment carried out can be divided into two phases, growing, in which the cells are to reach a specified optical density, and the subsequent biotransformation, in which the expression of the genes necessary for the biotechnological processes of production of ALAME was induced. The pH values were adjusted on one side with ammonia (12.5%) to pH 6.8. During growing and biotransformation, the dissolved oxygen (DO) in the culture was controlled at 30% by means of the stirrer rotary speed and the gassing rate. Fermentation was carried out as fed batch, wherein feed start, 5 g/Lh glucose feed (500 g/L glucose with 1% MgSO4*7H2O and 2.2% NH4Cl), was triggered by a DO peak. […] Expression of transaminase was induced 2 h after feed start by the automatic addition of IPTG (1 mM). Induction of the alk-genes was effected by manual addition of DCPK (0.025% v/v) 10 h after feed start. The optical density of the culture broths was determined before the start of biotransformation.
# The biotransformation phase started 14 h after feed start. For this, 150 mL of a mixture of lauric acid methyl ester and the respective ion exchanger (10% w/w) were added as batch to the fermentation broth. Di(2-ethylhexyl-)phosphoric acid (DEHPA), lauric acid, oleic acid, palmitic acid, palmitoleic acid, stearic acid and a mixture of free fatty acids from the saponification of globe thistle oil were used as ion exchangers. In order to make an amino group donor available for the transaminase, 10.7 mL of an alanine solution (125 g/L) was added to the fermentation broth simultaneously with addition of the organic phase. For sampling, 2 mL of fermentation broth was taken from the vessel and a portion of this was diluted 1/20 in an acetone-HCl mixture (c(HCl)=0.1 mol/L) and extracted. Samples were taken from all 8 reactors at 1.25 h, 3 h, 5 h, 20 h, 22 h and […] after the start of biotransformation. The oxygen transfer rate (OTR) and carbon transfer rate (CTR) were determined during the fermentation by exhaust gas analysis on the DasGip systems. The fermentation was ended 22 h after the start of biotransformation.
# E. coli BL21(DE3) = experiment: CFU determination, toxicity of liquid cation exchangers (Example 2); settings: for Number of CFUs after 22 or 24 h relative to t = 0 h: Escherichia coli
# From the text: 50% DEHPA or lauric acid (15%), in each case dissolved in LAME and with equimolar or 25 mol % loading with ALAME, as liquid cation exchanger, was contacted with an E. coli BL21 (DE3) strain and the influence of these two compounds on the strain's ability to form colonies, expressed in CFUs, was investigated.
# E. coli W3110 [2] = settings: Test 2, culture covered with equal volume of solvent
# Description: First a preculture comprising 20 ml of LB medium in a 100-ml baffle flask was inoculated with a cryoculture of the corresponding strain. The culture was cultured overnight at 37° C. with shaking at 200 rpm and was used on the next day, to inoculate an identical main culture to an OD of 0.2. The main cultures (each 30 mL of LB medium) were then incubated further under the same conditions. At an OD of 0.4 to 0.5, the main culture was covered in each case with equal volumes (30 ml) of solvent and was then incubated further.
# For determination of the number of CFUs (colony-forming units), in the next tests 0.1-ml samples were taken and were diluted in sterile 0.9% NaCl solution. Suitable dilution steps were plated out on LB-agar plates. After incubation at 34° C. overnight, the colonies that had formed were counted and the CFUs were determined.
# In this case two different concentrations of oleic acid were used and the volume was adjusted by adding the corresponding amount of LAME (lauric acid methyl ester).
# In this case various amounts of an unsaturated fatty acid were compared with an unsaturated fatty acid with respect to their toxicity when used as liquid cation exchanger. […] The volumes of the various cation exchangers were compared with LAME. The number of CFUs was determined at the start, after 4.5 h and after 24 h.
# E. coli W3110 [3] = experiment: CFU determination, lowering ALAME toxicity by contacting with a liquid cation exchanger (Example 3); type: cell-based; settings: ALAME 0.2% (w/v) dissolved in aqueous systems
# E. coli W3110 [4] = experiment: CFU determination, toxicity of the solvent LAME (Example 1)
# Description: Before the determination of CFUs could be undertaken, an LB plate (10 g/L peptone from casein, 5 g/L yeast extract, 10 g/L NaCl) was streaked with E. coli BW3110 and incubated for 24 h. In the evening of the next day, a preculture of this previously streaked plate was inoculated. […] On the next day the preculture with an OD600 of 0.2 was inoculated in 200 mL of M9 medium (Na2HPO4 6.79 g/L; KH2PO4 3.0 g/L; NaCl 0.5 g/L; NH4Cl 1 g/L; 1 mL/L trace element solution, pH 7.4. Trace element solution: HCl 37% (=455.8 g/L) 36.50 g/L; MnCl2*7H2O 1.91 g/L; ZnSO4*7H2O 1.87 g/L; Na-EDTA*2H2O (Titriplex III) 0.84 g/L; H3BO3 0.30 g/L; Na2MoO4*2H2O 0.25 g/L; CaCl2*2H2O 4.70 g/L; FeSO4*7H2O 17.80 g/L; CuCl2*2H2O 0.15 g/L) with 3% glucose (w/v) and incubated for approx. 20 h. After incubation of the main culture, the cells were harvested, centrifuged at 5258 g and 4° C. for 10 min and, with an OD600 of 30, were resuspended in 10 mL of 50 mM Kpi buffer at pH 7.4 (or 25 mM HEPES buffer pH 7.4, when CFU determinations with ALAME were carried out). Both buffer solutions used contained 5% glucose (w/v). Then the bacterial suspension was transferred to the shaking flasks and the solutions of the respective substances were added. After mixing by swirling the flask, 100 μL of the suspension was withdrawn by pipette and put into 900 μL of prepared sterile saline. This corresponded to sampling at time point t0. The mixtures were then incubated at 250 rpm and 30° C. The CFUs were determined over a period of 22 h. First the samples were taken at time points t0, t3, t6 and t22. For some mixtures another sampling time point t1.5 was added and furthermore another additional dilution series was plated out, in order to minimize deviations.
# The OD600 was 60. The cells were resuspended in 10 mL Kpi buffer and then mixed in the flask with 5 mL LAME 98% (w/w). One dilution step per assay was plated out.
Compound,toxicity to cells concluded from the OTR [1],course of the OTR after addition of the ion exchanger [1],Number of CFUs after 22 or 24 h relative to t = 0 h (E. coli BL21(DE3)) [%],also measured
CCCCCC/C=C\CCCCCCCC(=O)O [palmitoleic acid],even lower toxicity than the saturated fatty acids,–,–,–
CCCCCCCCCCCCCCCC(=O)O [palmitic acid],far less toxic,much shallower,–,–
CC(C)CCCCCC(=O)O [Isononanoic acid],–,–,0,Number of CFUs after 22 or 24 h relative to t = 0 h (E. coli W3110 [2]): 0%
CCCCC(CC)C(=O)O (stereo not drawn) [2-Ethylhexanoic acid],–,–,0,Number of CFUs after 22 or 24 h relative to t = 0 h (E. coli W3110 [2]): 0%
CCCCCCCCCCCC(=O)O [Lauric acid],far less toxic than DEHPA,"intrusion of the OTR, but it is less pronounced",1.2,–
CCCCCCCC/C=C\CCCCCCCC(=O)O [oleic acid],even lower toxicity than the saturated fatty acids,–,–,–
"COC(=O)CCCCCCCCCCCN [ALAME, 12-aminolauric acid methyl ester]",–,–,–,action on bacteria (E. coli W3110 [3]): bactericidal action
"CCCCC(CC)COP(=O)(O)OCC(CC)CCCC (stereo not drawn) [DEHPA, di(2-ethylhexyl)phosphoric acid, reference compound]",highly toxic to cells,drops to 0 within a short time,0,–
CCCCCCCCCCCCCCCCCC(=O)O [stearic acid],far less toxic,much shallower,–,–
"CCCCCCCCCCCC(=O)OC [LAME, lauric acid methyl ester]",–,–,–,"tolerance by the strains used (E. coli BL21(DE3); preliminary tests): tolerated well; percentage drop in the live cell count (E. coli W3110 [4]; 5 mL LAME 98% (w/w) with cells in 10 mL Kpi buffer, OD600 60, after 22 h): 30.3%; number of CFU/mL (E. coli W3110 [4]; 5 mL LAME 98% (w/w) with cells in 10 mL Kpi buffer, OD600 60, over a period of 6 h): remained constant; toxicity of LAME with respect to biotechnologically relevant microorganisms (E. coli W3110 [4]; compared with potassium phosphate buffer (Kpi) as negative control): does not have toxic action; also recorded: relatively low toxicity"
